Reference: patent US20250092353A1, “COMMENSAL FUNGUS AND USES THEREOF” (YEDA RESEARCH AND DEVELOPMENT CO. LTD., priority 2022, published 2025)

Legend:
[1] = system: C. albicans; assay: In vitro co-culture assay of C. albicans and K. weizmannii; type: cell-based, Candida albicans; conditions: in vitro coculture, flow cytometry
Procedure: FIGS. 2A-2F include micrographs, graphs, a plot, and a curve showing in vitro culture characteristics of K. weizmannii. (2A) Representative images of C. albicans and K. weizmannii in liquid media in presence of filament-inducing conditions, n=3 independent experiments. (2B) A graph showing largest differences in growth between K. weizmannii and C. albicans with different carbon sources, based on a z-score > or <2. Differences were calculated using the normalized area under the curve (AUC) of K. weizmannii and C. albicans. Normalization of the AUC are based on the growth of both species with glucose. Size of data points corresponds to the normalized AUC of K. weizmannii with the corresponding carbon source. All measurements were done using the Biolog Phenotype MicroArrays in biological triplicates. […] The data points are color-coded according to the different types of carbon sources. (2C) A graph showing the largest differences in growth between K. weizmannii and C. albicans with different nitrogen sources, based on a z-score greater than or less than 2. Differences were calculated using AUC of K. weizmannii and C. albicans and normalized based on the growth of both species with glutamine. […] GFP expressing C. albicans was detected by flowcytometry to discriminate between fungi, n=2 independent experiments.

[2] = system: neutrophils, classical and non-classical monocytes; assay: Flow cytometric analysis of myeloid blood cell compartment of colonized mice; type: in vivo; conditions: Abx-treated mice, 4 weeks colonized
Description: FIGS. 4A-4F include graphs showing humoral and cellular immune responses to C. albicans and Kazachstania sp. (4A) Flow cytometric analysis of myeloid blood cell compartment of mice 4 weeks colonized with C. albicans or K. weizmannii. Neutrophils, classical and non-classical monocytes are defined as Ly6G+CD 115−, Ly6C+CD 115+, and […], respectively. N=8-21 mice, pooled from 3 independent experiments. Gating strategy, left, results, right. (4B) Flow cytometric analysis of humoral anti-fungal reactivity. Gating strategy for the determination of serum immunoglobulin binding to cultured C. albicans or K. weizmannii. (4C) Anti-C. albicans and K. weizmannii IgA and IgG serum reactivity of single-colonized animals, measured as shown in (4B). Note that most but not all animals harbor cross-reactive sera. (4D) Representative gating strategy of RORγt+ T cells (left); percentage of RORγt+ cells among TCRβ CD4+ T cells 5 weeks upon C. albicans or K. weizmannii colonization, n=3-5 mice per group, 3 independent experiments (right). […] EC damage was assessed using the LDH assay as described in (Allert et al., 2018). […]
Methods adhered to published guidelines (Cossarizza et al., 2019). Flow cytometry samples were recorded on BD LSR Fortessa 4 lasers or Cytek Aurora followed by data analysis using the FlowJo software (Treestar).

[3] = system: CD4+ T cells in PBMCs; assay: Antigen-reactive T cell enrichment (ARTE); type: cell-based, human; conditions: peripheral blood of healthy individuals, 40 μg/ml fungal lysates
Procedure: PBMCs were freshly isolated from EDTA blood samples on the day of blood donation by density gradient centrifugation (Biocoll; Biochrom, Berlin, Germany). Antigen-reactive T cell enrichment (ARTE) was performed as follows. Briefly, 2×10e^7 PBMCs were plated in RPMI-1640 medium (GIBCO), supplemented with 5% (v/v) human AB-serum (Sigma Aldrich, Schnelldorf, Germany) at a cell density of 1×10e^7 PBMCs/2 cm^2 in cell culture plates and stimulated with 40 μg/ml fungal lysates for 7 hr in presence of 1 μg/ml CD40 and 1 μg/ml CD28 pure antibody (both Miltenyi Biotec, Bergisch Gladbach, Germany). 1 μg/ml Brefeldin A (Sigma Aldrich) was added for the last 2 hr. Cells were labeled with CD154-Biotin followed by anti-Biotin MicroBeads (CD154 MicroBead Kit; Miltenyi Biotec) and magnetically enriched by two sequential MS columns (Miltenyi Biotec). Surface staining was performed on the first column, followed by fixation, permeabilization (Inside stain Kit, Miltenyi Biotec) and intracellular staining on the second column. […]
Frequencies of antigen-specific T cells were determined based on the total cell count of CD154+ T cells after enrichment, normalized to the total number of CD4+ T cells applied on the column. […]

## Kazachstania weizmannii [K. weizmannii]
[1]
  growth interference in co-culture with C. albicans: grew together without interference
[2]
  abundance of blood granulocytes and monocytes: no significantly altered abundance of granulocytes, classical or non-classical monocytes
[3]
  polarization of fungus-reactive T cells: of the Th1 type
